For 69 molecules, Papp results are on record in publication PMC11876671, “Investigating blood–brain barrier penetration and neurotoxicity of natural products for central nervous system drug development” (Scientific Reports, 2025).

Counter-ions that a name gives are not always drawn. Some results are limits rather than exact numbers.

A short description of one series: in vitro. The note with it: PAMPA, PAMPA-BBB Pe. For orientation: In PAMPA a lipid-coated filter parts donor from acceptor wells.
For `CC[C@H](C)C(=O)O[C@H]1CCC=C2C=C[C@H](C)[C@H](CC[C@@H]3C[C@@H](O)CC(=O)O3)[C@H]21` [MEVASTATIN], the Papp (usually a coefficient for how fast a substance crosses the barrier) stood at 14 ×10⁻⁶ cm/s.

Molecule `C=C(C)[C@@H]1CCC2=CCC[C@@H](C)[C@]2(C)C1` returned an apparent permeability coefficient (Papp) of 18 ×10⁻⁶ cm/s.

On to `CCOC(=O)c1ccc(N)cc1` [BENZOCAINE], for which the Papp turned out to be 99 ×10⁻⁶ cm/s. On to `CC(C)(O)CC[C@@H](O)[C@](C)(O)[C@H]1CC[C@@]2(O)C3=CC(=O)[C@@H]4C[C@@H](O)[C@@H](O)C[C@]4(C)[C@H]3CC[C@]12C` [COMMISTERONE], for which the apparent permeability coefficient (Papp) is 14 ×10⁻⁶ cm/s.

The series is the same for the next values; noted with them: PAMPA, PAMPA-BBB Pe(10^-6 cm/sec).
On to `CC(=O)OCC(=O)[C@@]1(O)CC[C@H]2[C@@H]3CCC4=CC(=O)CC[C@]4(C)[C@H]3[C@@H](O)C[C@@]21C` [HYDROCORTISONE ACETATE], for which the apparent permeability (Papp) is less than 1 ×10⁻⁶ cm/s. Molecule `CC(C)C/C=C(\C=O)c1ccccc1` [(Z)-5-METHYL-2-PHENYL-HEX-2-ENAL] returned a Papp of less than 1 ×10⁻⁶ cm/s. With `Cc1ncc(C[n+]2csc(CCO)c2C)c(N)n1` [THIAMINE MONONITRATE], the apparent permeability coefficient (Papp) was less than 1 ×10⁻⁶ cm/s. Still for that read-out and setting: for `Cn1cnc2c1c(=O)[nH]c(=O)n2C` [THEOBROMINE] the value was less than 1 ×10⁻⁶ cm/s; for `CO[C@H]1/C=C/O[C@@]2(C)Oc3c(C)c(O)c4c(O)c(c(/C=N/N5CCN(C)CC5)c(O)c4c3C2=O)NC(=O)/C(C)=C\C=C\[C@H](C)[C@H](O)[C@@H](C)[C@@H](O)[C@@H](C)[C@H](OC(C)=O)[C@@H]1C` [Rifampicin], 3.7 ×10⁻⁶ cm/s; for `CN1c2c(nc(N)[nH]c2=O)NC[C@@H]1CNc1ccc(C(=O)N[C@@H](CCC(=O)O)C(=O)O)cc1` [LEVOMEFOLATE], less than 1 ×10⁻⁶ cm/s. In the case of `CN(C)[C@@H]1C(O)=C(C(N)=O)C(=O)[C@@]2(O)C(O)=C3C(=O)c4c(O)ccc(Cl)c4[C@@H](O)[C@H]3C[C@@H]12` [DEMECLOCYCLINE HYDROCHLORIDE], the apparent permeability (Papp) came to 1.5 ×10⁻⁶ cm/s.

The series is the same for the next values; noted with them: PAMPA, PAMPA-BBB Pe(10^-6 cm/sec), Table S3: compounds exhibiting low PAMPA-BBB permeability.
Regarding `C[n+]1cc2c3c(ccc2c2ccc4cc5c(cc4c21)OCO5)OCO3` [SANGUINARIUM CHLORIDE], the apparent permeability coefficient (Papp) is less than 1 ×10⁻⁶ cm/s. Molecule `O=C(CCc1ccc(O)cc1)c1c(O)cc(O)cc1O[C@@H]1O[C@H](CO)[C@@H](O)[C@H](O)[C@H]1O` [PHLORIDZIN] returned a Papp of 1.4 ×10⁻⁶ cm/s. In turn, `Nc1ncnc2c1ccn2[C@@H]1O[C@H](CO)[C@@H](O)[C@H]1O` [TUBERCIDIN] had a Papp of 2.1 ×10⁻⁶ cm/s. For `O=C(O)c1ccccc1O` [SALICYLIC ACID], the Papp amounted to 1.8 ×10⁻⁶ cm/s. Regarding `O=c1c(-c2ccc(O)cc2)coc2cc(O[C@@H]3O[C@H](CO)[C@@H](O)[C@H](O)[C@H]3O)ccc12` [DAIDZIN], the apparent permeability (Papp) is less than 1 ×10⁻⁶ cm/s. Molecule `CC(C)=CCNc1ncnc2c1ncn2[C@@H]1O[C@H](CO)[C@@H](O)[C@H]1O` [RIBOPRINE] yielded a Papp of less than 1 ×10⁻⁶ cm/s. Still for that read-out and setting: the value for `COc1ccc2[nH]cc(CCNC(C)=O)c2c1` [MELATONIN] was 2.8 ×10⁻⁶ cm/s; that for `COC(=O)C[C@](O)(CCC(C)(C)O)C(=O)O[C@@H]1C(OC)=C[C@]23CCCN2CCc2cc4c(cc2[C@H]13)OCO4` [HARRINGTONINE] was less than 1 ×10⁻⁶ cm/s; that for `O=c1ccn([C@@H]2O[C@H](COP(=O)(O)O)[C@@H](O)[C@H]2O)c(=O)[nH]1` [URIDINE PHOSPHATE] was less than 1 ×10⁻⁶ cm/s. On the same count and under the same terms, the value for `Cc1ncsc1CCO` [HEMINEURINE] was less than 1 ×10⁻⁶ cm/s; that for `COC1=C2C[C@@H](C)C[C@H](OC)[C@H](O)[C@@H](C)/C=C(\C)[C@H](OC(N)=O)[C@@H](OC)/C=C\C=C(/C)C(=O)NC(=CC1=O)C2=O` [GELDANAMYCIN] was less than 1 ×10⁻⁶ cm/s.

On to `Nc1ccn([C@@H]2O[C@H](CO)[C@@H](OP(=O)(O)O)[C@H]2O)c(=O)n1` [3'-CMP], for which the Papp was less than 1 ×10⁻⁶ cm/s.

Take `O=C(O)/C=C/c1ccccc1` [CINNAMIC ACID]: the Papp was less than 1 ×10⁻⁶ cm/s. Still for that read-out and setting: the value for `C[C@@H]1CC[C@]2(C)CC[C@]3(C)C(=CC(=O)C4[C@@]5(C)CC[C@@H](O)[C@](C)(C(=O)O)C5CC[C@]43C)C2[C@H]1C` (stereo partly drawn) [KETO-B-BOSWELLIC ACID] was less than 1 ×10⁻⁶ cm/s. As to `O=C(O)[C@H]1O[C@@H](Oc2cc3oc(-c4ccccc4)cc(=O)c3c(O)c2O)[C@H](O)[C@@H](O)[C@@H]1O` [BAICALIN], the Papp was found to be 1.3 ×10⁻⁶ cm/s. Molecule `CNc1ccc(C(=O)CC(O)CCC(C)C2OC(=O)CC(O)CC(=O)CC(O)CC(O)CC(O)CC(O)CC3(O)CC(O)C(C(=O)OC)C(CC(O[C@@H]4O[C@H](C)[C@@H](O)[C@H](N)[C@@H]4O)/C=C/C=C/C=C/C=C/C=C/C=C/C=C/C2C)O3)cc1` (stereo partly drawn) [M[…]] had a Papp of less than 1 ×10⁻⁶ cm/s. Same read-out and setting: the value for `O=C(O)[C@H]1O[C@@H](Oc2c(-c3ccc(O)c(O)c3)oc3cc(O)cc(O)c3c2=O)[C@H](O)[C@@H](O)[C@@H]1O` [QUERCITURONE] was 4.2 ×10⁻⁶ cm/s; that for `COc1c2c(cc3c1OCO3)CC[N+](C)=C2` [COTARNINIUM] was less than 1 ×10⁻⁶ cm/s; that for `COc1c(O)cc2c(c1O)[C@@H]1O[C@H](CO)[C@@H](O)[C@H](O)[C@H]1OC2=O` [BERGENIN] was less than 1 ×10⁻⁶ cm/s. As for `c1cncc([C@@H]2CCCCN2)c1` [ANABASINE], the apparent permeability coefficient (Papp) came to 3.4 ×10⁻⁶ cm/s. Same read-out and setting: for `COc1ccc(-c2coc3cc(O[C@@H]4O[C@H](CO)[C@@H](O)[C@H](O)[C@H]4O)ccc3c2=O)cc1` [ONONOSIDE] the value was less than 1 ×10⁻⁶ cm/s; for `COc1cc2c(c(OC)c1OC)-c1ccc(O)c(=O)cc1[C@@H](N)CC2` [N-DEACETYLCOLCHICEINE], 8.2 ×10⁻⁶ cm/s; for `C/C=C1\[C@H]2C=C(C)C[C@]1(N)c1ccc(=O)[nH]c1C2` [HUPERZINE A], 8.1 ×10⁻⁶ cm/s. The same measure, in the same setting: for `Cn1cnc(N)c2ncnc1-2` [3-METHYL-6-AMINOPURINE] the value was less than 1 ×10⁻⁶ cm/s; for `O=C(CCc1ccc(O)cc1)c1c(O)cc(O)cc1O` [PHLORETIN], 2.2 ×10⁻⁶ cm/s.

In turn, `O=c1c(O)c(-c2cc(O)c(O)c(O)c2)oc2cc(O)cc(O)c12` [MYRICETIN] returned a Papp of less than 1 ×10⁻⁶ cm/s. For the molecule `COC(=O)C1=CO[C@@H](O[C@@H]2O[C@H](CO)[C@@H](O)[C@H](O)[C@H]2O)[C@@H]2[C@@H](C)[C@@H](O)C[C@H]12` [LOGANIN], the apparent permeability coefficient (Papp) is less than 1 ×10⁻⁶ cm/s. In the case of `CO[C@@H]1[C@@H](O[C@@H]2O[C@H](C)[C@@H](O[C@H]3C[C@@](C)(O)[C@@H](O)[C@H](C)O3)[C@H](N(C)C)[C@H]2O)[C@@H](CC=O)C[C@@H](C)[C@@H](O[C@H]2CC[C@H](N(C)C)[C@@H](C)O2)/C=C/C=C/C[C@@H](C)OC(=O)C[C@H]1OC(C)=O` [SPIRAMYCIN II], the Papp stood at 7.6 ×10⁻⁶ cm/s.

Regarding `c1coc(CNc2ncnc3[nH]cnc23)c1` [KINETIN], the Papp was found to be 4 ×10⁻⁶ cm/s.

Molecule `Nc1nc(Cl)nc2c1ncn2[C@@H]1O[C@H](CO)C(O)[C@H]1O` (stereo partly drawn) [2-CHLOROADENOSINE] showed an apparent permeability coefficient (Papp) of less than 1 ×10⁻⁶ cm/s. For `CC1=C(CC/C(C)=C/CCC2=CC[C@H](C3=CC(=O)O[C@H]3O)O[C@H]2O)C(C)(C)CCC1` [MANOALIDE], the Papp is less than 1 ×10⁻⁶ cm/s. On the same count and under the same terms, the value for `COc1cc(C)c2c(c1C=O)Oc1c(c(C)c(O)c3c1C(O)OC3=O)OC2=O` (stereo not drawn) [STICTIC ACID] was less than 1 ×10⁻⁶ cm/s. Regarding `COC(=O)c1ccc(O)c2nc3c(C=O)c(O)cc(O)c3nc12` [LOMOFUNGIN], the Papp stood at 5.1 ×10⁻⁶ cm/s. On the same count and under the same terms, the value for `O=c1ccn([C@H]2C[C@H](O)[C@@H](CO)O2)c(=O)[nH]1` [DEOXYURIDINE] was less than 1 ×10⁻⁶ cm/s.

Consider `Clc1ccc([C@@H]2C[C@H]3CC[C@@H]2N3)cn1` [Epibatidine dihydrochloride], for which the apparent permeability (Papp) stood at 5.9 ×10⁻⁶ cm/s. Same read-out and setting: the value for `O=C(O)c1cc(N(Cc2ccccc2O)Cc2ccccc2O)ccc1O` [L[…]] was 5.9 ×10⁻⁶ cm/s; that for `O[C@@H]1[C@@H](O)[C@H](OC/C=C/c2ccccc2)O[C@H](CO[C@@H]2OC[C@H](O)[C@H](O)[C@H]2O)[C@H]1O` [ROSAVIN] was less than 1 ×10⁻⁶ cm/s. With `O=C(O)Cc1c[nH]c2ccc(O)cc12` [HYDROXYIN[…]], the Papp was less than 1 ×10⁻⁶ cm/s.

In turn, `N[C@@H](Cc1c[nH]c2ccc(O)cc12)C(=O)O` [CINCOFARM] gave a Papp of less than 1 ×10⁻⁶ cm/s.

The same series, now with this note: PAMPA, PAMPA-BBB Pe, Table S2: compounds exhibiting moderate to high PAMPA-BBB permeability.
In the case of `C[C@]12CCC(=O)C=C1[C@@H]1C[C@@H]1[C@H]1[C@@H]3[C@@H]4C[C@@H]4[C@@]4(CCC(=O)O4)[C@@]3(C)CC[C@@H]12` [DROSPIRENONE], the apparent permeability (Papp) is 169 ×10⁻⁶ cm/s.

As to `COC(=O)C1=CO[C@@H](C)[C@H]2CN3CCc4c([nH]c5ccccc45)[C@@H]3C[C@H]12` [RAUBASINE HYDROCHLORIDE], the Papp was determined as 125 ×10⁻⁶ cm/s. Same read-out and setting: the value for `O=C(/C=C/c1ccccc1)c1ccc(O)cc1O` was 223 ×10⁻⁶ cm/s; that for `CC1(C)O[C@@H]1COc1c2occc2cc2ccc(=O)oc12` [HERACLENIN] was 210 ×10⁻⁶ cm/s; that for `CC1=C[C@H](O)CC(C)(C)[C@H]1/C=C/C(C)=C/C=C/C(C)=C/C=C/C=C(C)/C=C/C=C(C)/C=C/C1=C(C)C[C@@H](O)CC1(C)C` [XANTOFYL] was 28 ×10⁻⁶ cm/s. On the same count and under the same terms, the value for `CN1CC[C@]23c4ccccc4N[C@H]1[C@]21CCN(C)[C@H]3Nc2ccccc21` [[…]] was 23 ×10⁻⁶ cm/s; that for `COc1cc(C)cc(O)c1` [3-HYDROXY-5-METHOXYTOLUENE] was 50 ×10⁻⁶ cm/s.

In turn, `COC1=CC(=O)O[C@@H](CCc2ccccc2)C1` [DIHYDROKAWAIN] had a Papp of 82 ×10⁻⁶ cm/s. Still for that read-out and setting: for `COC(=O)C=Cc1ccccc1` [METHYL CINNAMATE] the value was 98 ×10⁻⁶ cm/s.

`CCCCCCCCC(=O)NCc1ccc(O)c(OC)c1` [NONIVAMIDE] had an apparent permeability coefficient (Papp) of 125 ×10⁻⁶ cm/s. Still for that read-out and setting: the value for `COc1ccc2[nH]c3c(c2c1)CCN=C3C` [6-METHOXYHARMALANE] was 49 ×10⁻⁶ cm/s; that for `COc1ccc(/C=C/c2cc(OC)cc(=O)o2)cc1` [YANGONIN] was 156 ×10⁻⁶ cm/s.

As to `CN1CC(CO)=C[C@H]2c3cccc4[nH]cc(c34)C[C@H]21` [ELYMOCLAVINE], the Papp was determined as 17 ×10⁻⁶ cm/s. `S=c1ccss1` [1,2-DITHIOLE-3-THIONE] had a Papp of 98 ×10⁻⁶ cm/s. Same read-out and setting: the value for `COc1cc(C)c(C(=O)Oc2cc(C)c(C(=O)O)c(O)c2C)c(OC)c1C` [Diffractaic acid] was 15 ×10⁻⁶ cm/s; that for `CC[C@H]1CN2CC[C@H]1C[C@@H]2[C@@H](O)c1ccnc2ccc(OC)cc12` [HYDROQUINIDINE HYDROCHLORIDE] was 37 ×10⁻⁶ cm/s.

The molecule `COc1ccc(-c2oc3cc(O[C@@H]4O[C@H](CO)[C@@H](O)[C@H](O)[C@H]4O)c(OC)c(O)c3c(=O)c2OC)cc1O` [CENTAUREIN] yielded an apparent permeability (Papp) of 38 ×10⁻⁶ cm/s. Same read-out and setting: the value for `O=Cc1ccco1` [FURFURAL] was 46 ×10⁻⁶ cm/s; that for `C/C=C/c1ccc(OC)cc1` [ANETHOLE] was 120 ×10⁻⁶ cm/s.
